Test results reported in BindingDB's records for doi:10.1021/jm9811054 (Merck, 2000).

Target: 5-HT1D receptor (Bos taurus)
Assay: Binding affinity towards 5-hydroxytryptamine 1D receptor in calf striatum using [3H]5-HT as radio-ligand.

Row | Structure (SMILES) | IC50 [µM]
1 | COc1ccc(NC(=O)N2CCC(c3c[nH]c4cc(F)ccc34)CC2)cc1N1CCN(C)CC1 [4-(6-Fluoro-1H-indol-3-yl)-piperidine-1-carboxylic acid [4-methoxy-3-(4-methyl-piperazin-1-yl)-phenyl]-amide] | 0.2
2 | COc1ccc(NC(=O)N2CCC(c3c[nH]c4ccc(C(N)=O)cc34)CC2)cc1N1CCN(C)CC1 [3-{1-[4-Methoxy-3-(4-methyl-piperazin-1-yl)-phenylcarbamoyl]-piperidin-4-yl}-1H-indole-5-carboxylic acid amide] | 0.1
3 | COc1ccc(NC(=O)N2CCN(CCCCc3c[nH]c4ccc(F)cc34)CC2)cc1N1CCN(C)CC1 [4-[4-(5-Fluoro-1H-indol-3-yl)-butyl]-piperazine-1-carboxylic acid [4-methoxy-3-(4-methyl-piperazin-1-yl)-phenyl]-amide] | 0.367

Next, values leading:

Row | IC50 [µM] | Structure (SMILES)
4 | 0.4 | COc1ccc(NC(=O)N2CCC(c3c[nH]c4ccc(C#N)cc34)CC2)cc1N1CCN(C)CC1 [4-(5-Cyano-1H-indol-3-yl)-piperidine-1-carboxylic acid [4-methoxy-3-(4-methyl-piperazin-1-yl)-phenyl]-amide]
5 | 0.167 | COc1ccc(NC(=O)NCCc2c[nH]c3ccc(F)cc23)cc1N1CCN(C)CC1 [1-[2-(5-Fluoro-1H-indol-3-yl)-ethyl]-3-[4-methoxy-3-(4-methyl-piperazin-1-yl)-phenyl]-urea]
6 | 0.667 | COc1ccc(NC(=O)N2CCc3[nH]c4ccc(F)cc4c3C2)cc1N1CCN(C)CC1 [8-Fluoro-1,3,4,5-tetrahydro-pyrido[4,3-b]indole-2-carboxylic acid [4-methoxy-3-(4-methyl-piperazin-1-yl)-phenyl]-amide]
7 | 0.433 | COc1ccc(NC(=O)NCCN2CCC(c3c[nH]c4cc(F)ccc34)CC2)cc1OCCN(C)C [1-[3-(2-Dimethylamino-ethoxy)-4-methoxy-phenyl]-3-{2-[4-(6-fluoro-1H-indol-3-yl)-piperidin-1-yl]-ethyl}-urea]
